# Experiments:
# Assay type in all cases: in vivo
# [1] = system: common waterhemp (AMATU; Amaranthus rudis); test: Test I pre-/postemergence, mixtures of Cpd. No. 20 with saflufenacil or pyroxasulfone; conditions: for Plant response rating (0 to 100 scale): AMATU
# Source text: (§1) This test evaluated the effect of mixtures of Cpd. No. 20 with saflufenacil or pyroxasulfone on several plant species. Seeds of plant species selected from corn (ZEAMD; Zea mays, cv. ‘Pioneer 1184’), soybean (GLXMA; Glycine max, cv. Pioneer 35T58), giant foxtail (SETFA; Setaria faberi), palmer amaranth (AMAPA; Amaranthus palmeri), common waterhemp (AMATU; Amaranthus rudis), mare's tail (ERICA; Conyza canadensis), and common ragweed (AMBEL; Ambrosia artemisiifolia) were planted in pots containing Tama Silt Loam soil and treated preemergence with a directed soil spray using test chemicals formulated in a non-phytotoxic solvent mixture which included a surfactant.
# (§2) At the same time, plants selected from these crop and weed species were planted in pots containing Redi-Earth® planting medium (Scotts Company, 14111 Scottslawn Road, Marysville, Ohio 43041) comprising spaghnum peat moss, vermiculite, wetting agent and starter nutrients and treated postemergence with test chemicals formulated in the same manner. Plants ranged in height from 2 to 10 cm and were in the one- to two-leaf stage for the postemergence treatment. Treated plants and untreated controls were maintained in a greenhouse for approximately 14-21 d, after which time all treated plants were compared to untreated controls and visually evaluated for injury. Plant response ratings, summarized in Tables 11 to 14, are based on a 0 to 100 scale where 0 is no effect and 100 is complete control. A dash (-) response means no test result. Test results are presented as a mean of 4 reps.
# [2] = system: mare's tail (ERICA; Conyza canadensis); test: as above; conditions: for Plant response rating (0 to 100 scale): Preemergence, ERICA
# Source text: as §1, §2
# [3] = system: palmer amaranth (AMAPA; Amaranthus palmeri); test: as above; conditions: for Plant response rating (0 to 100 scale): AMAPA
# Source text: as §1, §2
# [4] = system: soybean (GLXMA; Glycine max, cv. Pioneer 35T58); test: as above; conditions: for Plant response rating (0 to 100 scale): GLXMA
# Source text: as §1, §2
# [5] = system: winter wheat (TRZAW; Triticum aetivum, cv. Arezzo); test: Test M postemergence, mixtures of Cpd. No. 20 with isoxadifen-ethyl, cloquintocet-mexyl or Mefenpyr-diethyl; conditions: approx. 14 d
# [6] = system: giant foxtail (SETFA; Setaria faberi); test: as above; conditions: approx. 14 d
# [7] = system: corn (ZEAMD; Zea mays, cv. ‘Pioneer 1184’); test: as above; conditions: approx. 14 d
# [8] = system: winter barley (HORVW; Hordeum vulgare, cv. Boone); test: as above; conditions: approx. 14 d
# [9] = system: soybean (GLXMA; Glycine max, cv. Pioneer 35T58); test: as above; conditions: approx. 14 d
# [10] = Preemergence, Cpd. No. 20 8 g a.i./ha alone
# [11] = preemergence, Cpd. No. 20 16 g a.i./ha alone
# [12] = preemergence, Cpd. No. 20 31 g a.i./ha alone
# [13] = preemergence, Cpd. No. 20 62 g a.i./ha alone
# [14] = Cpd. No. 20 alone 125 g a.i./ha
# [15] = Cpd. No. 20 alone 250 g a.i./ha
# [16] = Cpd. No. 20 alone 375 g a.i./ha
compound,measurement,setting,value
"Cc1ccc2ccc(C)c(-c3c(O)c(Cl)nn(C)c3=O)c2c1 [Cpd. No. 20, 6-chloro-4-(2,7-dimethyl-1-naphthalenyl)-5-hydroxy-2-methyl-3(2H)-pyridazinone]",Plant response rating (0 to 100 scale),[1]; [10],0
same,"AMATU plant response rating, 0 to 100 scale","[1]; postemergence, 8 g a.i./ha",50
same,"AMATU plant response rating, 0 to 100 scale","[1]; postemergence, 16 g a.i./ha",59
same,"AMATU plant response rating, 0 to 100 scale","[1]; postemergence, 31 g a.i./ha",81
same,"AMATU plant response rating, 0 to 100 scale","[1]; postemergence, 62 g a.i./ha",83
same,"AMATU plant response rating, 0 to 100 scale","[1]; preemergence, 8 g a.i./ha",0
same,"AMATU plant response rating, 0 to 100 scale","[1]; preemergence, 16 g a.i./ha",0
same,"AMATU plant response rating, 0 to 100 scale","[1]; preemergence, 31 g a.i./ha",0
same,"AMATU plant response rating, 0 to 100 scale","[1]; preemergence, 62 g a.i./ha",80
same,Plant response rating (0 to 100 scale),[1]; [11],0
same,Plant response rating (0 to 100 scale),[1]; [12],0
same,Plant response rating (0 to 100 scale),[1]; [13],80
same,Plant response rating (0 to 100 scale),[2]; Cpd. No. 20 8 g a.i./ha alone,93
same,Plant response rating (0 to 100 scale),[2]; Cpd. No. 20 16 g a.i./ha alone,100
same,Plant response rating (0 to 100 scale),[2]; Cpd. No. 20 31 g a.i./ha alone,100
same,Plant response rating (0 to 100 scale),[2]; Cpd. No. 20 62 g a.i./ha alone,100
same,"ERICA plant response rating, 0 to 100 scale","[2]; postemergence, 8 g a.i./ha",85
same,"ERICA plant response rating, 0 to 100 scale","[2]; postemergence, 16 g a.i./ha",86
same,"ERICA plant response rating, 0 to 100 scale","[2]; postemergence, 31 g a.i./ha",90
same,"ERICA plant response rating, 0 to 100 scale","[2]; postemergence, 62 g a.i./ha",90
same,"ERICA plant response rating, 0 to 100 scale","[2]; preemergence, 8 g a.i./ha",93
same,"ERICA plant response rating, 0 to 100 scale","[2]; preemergence, 16 g a.i./ha",100
same,"ERICA plant response rating, 0 to 100 scale","[2]; preemergence, 31 g a.i./ha",100
same,"ERICA plant response rating, 0 to 100 scale","[2]; preemergence, 62 g a.i./ha",100
same,Plant response rating (0 to 100 scale),[3]; [10],23
same,"AMAPA plant response rating, 0 to 100 scale","[3]; postemergence, 8 g a.i./ha",38
same,"AMAPA plant response rating, 0 to 100 scale","[3]; postemergence, 16 g a.i./ha",40
same,"AMAPA plant response rating, 0 to 100 scale","[3]; postemergence, 31 g a.i./ha",50
same,"AMAPA plant response rating, 0 to 100 scale","[3]; postemergence, 62 g a.i./ha",65
same,"AMAPA plant response rating, 0 to 100 scale","[3]; preemergence, 8 g a.i./ha",23
same,"AMAPA plant response rating, 0 to 100 scale","[3]; preemergence, 16 g a.i./ha",44
same,"AMAPA plant response rating, 0 to 100 scale","[3]; preemergence, 31 g a.i./ha",23
same,"AMAPA plant response rating, 0 to 100 scale","[3]; preemergence, 62 g a.i./ha",61
same,Plant response rating (0 to 100 scale),[3]; [11],44
same,Plant response rating (0 to 100 scale),[3]; [12],23
same,Plant response rating (0 to 100 scale),[3]; [13],61
same,Plant response rating (0 to 100 scale),[4]; [10],0
same,"GLXMA plant response rating, 0 to 100 scale","[4]; postemergence, 8 g a.i./ha",0
same,"GLXMA plant response rating, 0 to 100 scale","[4]; postemergence, 16 g a.i./ha",0
same,"GLXMA plant response rating, 0 to 100 scale","[4]; postemergence, 31 g a.i./ha",15
same,"GLXMA plant response rating, 0 to 100 scale","[4]; postemergence, 62 g a.i./ha",16
same,"GLXMA plant response rating, 0 to 100 scale","[4]; preemergence, 8 g a.i./ha",0
same,"GLXMA plant response rating, 0 to 100 scale","[4]; preemergence, 16 g a.i./ha",0
same,"GLXMA plant response rating, 0 to 100 scale","[4]; preemergence, 31 g a.i./ha",0
same,"GLXMA plant response rating, 0 to 100 scale","[4]; preemergence, 62 g a.i./ha",0
same,Plant response rating (0 to 100 scale),[4]; [11],0
same,Plant response rating (0 to 100 scale),[4]; [12],0
same,Plant response rating (0 to 100 scale),[4]; [13],0
same,Plant response rating (0 to 100 scale) TRZAW,[5]; Cpd. No. 20 alone 62 g a.i./ha,0
same,Plant response rating (0 to 100 scale) TRZAW,[5]; [14],8
same,Plant response rating (0 to 100 scale) TRZAW,[5]; [15],22
same,Plant response rating (0 to 100 scale) TRZAW,[5]; [16],35
same,Plant response rating (0 to 100 scale) SETFA,[6]; Cpd. No. 20 alone 62 g a.i./ha,96
same,Plant response rating (0 to 100 scale) SETFA,[6]; [14],99
same,Plant response rating (0 to 100 scale) SETFA,[6]; [15],100
same,Plant response rating (0 to 100 scale) SETFA,[6]; [16],100
same,Plant response rating (0 to 100 scale) ZEAMD,[7]; Cpd. No. 20 alone 62 g a.i./ha,0
same,Plant response rating (0 to 100 scale) ZEAMD,[7]; [14],17
same,Plant response rating (0 to 100 scale) ZEAMD,[7]; [15],28
same,Plant response rating (0 to 100 scale) ZEAMD,[7]; [16],33
same,Plant response rating (0 to 100 scale) HORVW,[8]; Cpd. No. 20 alone 62 g a.i./ha,0
same,Plant response rating (0 to 100 scale) HORVW,[8]; [14],10
same,Plant response rating (0 to 100 scale) HORVW,[8]; [15],15
same,Plant response rating (0 to 100 scale) HORVW,[8]; [16],20
same,Plant response rating (0 to 100 scale) GLXMA,[9]; Cpd. No. 20 alone 62 g a.i./ha,15
same,Plant response rating (0 to 100 scale) GLXMA,[9]; [14],22
same,Plant response rating (0 to 100 scale) GLXMA,[9]; [15],30
same,Plant response rating (0 to 100 scale) GLXMA,[9]; [16],35
